Results: PMC5453931, “Cathelicidin-trypsin inhibitor loop conjugate represents a promising antibiotic candidate with protease stability” (Scientific Reports, 2017)
Values after ≈ are worked out from the molar mass of the structure shown. Where a SMILES comes first, the peptide text is derived from it. Bridges are numbered along the chain shown (N, C = ends).

How the values were obtained:
[1] = system: Aeromonas veronii; assay: microbe, parasite or virus in culture; assay type: cell-based; details: Aquatic pathogenic bacteria; two-fold broth microdilution, 37 °C, 18 h; mean of three independent experiments in duplicates
Procedure: (§1) A two-fold broth microdilution method described in our previous paper was used to determine the antimicrobial activities of parental and hybrid peptides. More than 30 strains including Gram-negative bacteria, Gram-positive bacteria and fungi were used in the current assay, in which the standard strains were stored in our lab and the clinical strains were collected from local hospitals. Briefly, bacteria were incubated in Mueller-Hinton broth (MH broth) at 37 °C to exponential phase and diluted to 10^6 CFU/mL. A serial dilution of peptide sample were prepared in 96-well microtiter plates (50 μL) and mixed with equal volume of microbial inoculums (50 μL). The plate was slowly shaken in the microbial incubator, and measured at A595 after incubation at 37 °C for 18 h. The minimal concentrations at which no microbial growth occurred were recorded as MIC (minimal inhibitory concentration) values. The traditional antibiotic ampicillin was used as positive control. The results are shown in an average of the MICs obtained from three independent experiments.

[2] = system: Candida albicans 08030102; assay: microbe, parasite or virus in culture; assay type: cell-based; details: Fungi; two-fold broth microdilution, 37 °C, 18 h; mean of three independent experiments in duplicates
Procedure: as §1

[3] = system: Vibrio brasiiensis; assay: microbe, parasite or virus in culture; assay type: cell-based; details: Aquatic pathogenic bacteria; two-fold broth microdilution, 37 °C, 18 h; mean of three independent experiments in duplicates
Procedure: as §1

[4] = system: Shigella dysenteriae 0804203; assay: microbe, parasite or virus in culture; assay type: cell-based; details: Gram-negative; two-fold broth microdilution, MH broth, 37 °C, 18 h; mean of three independent experiments in duplicates
Procedure: as §1

[5] = system: K. Pneumoniae 08031012; assay: microbe, parasite or virus in culture; assay type: cell-based; details: Gram-negative; two-fold broth microdilution, MH broth, 37 °C, 18 h; mean of three independent experiments in duplicates
Procedure: as §1

[6] = system: E. Coli 08032823; assay: microbe, parasite or virus in culture; assay type: cell-based; details: Gram-negative; two-fold broth microdilution, MH broth, 37 °C, 18 h; mean of three independent experiments in duplicates
Procedure: as §1

[7] = system: P. Aeruginosa 08021015; assay: microbe, parasite or virus in culture; assay type: cell-based; details: Gram-negative; two-fold broth microdilution, MH broth, 37 °C, 18 h; mean of three independent experiments in duplicates
Procedure: as §1

[8] = system: Enterococcus faecium 08052315; assay: microbe, parasite or virus in culture; assay type: cell-based; details: Gram-positive; two-fold broth microdilution, MH broth, 37 °C, 18 h; mean of three independent experiments in duplicates
Procedure: as §1

[9] = system: Bacillus subtilis 08042313; assay: microbe, parasite or virus in culture; assay type: cell-based; details: Gram-positive; two-fold broth microdilution, MH broth, 37 °C, 18 h; mean of three independent experiments in duplicates
Procedure: as §1

[10] = system: K. Pneumoniae 08040202; assay: microbe, parasite or virus in culture; assay type: cell-based; details: Gram-negative; two-fold broth microdilution, MH broth, 37 °C, 18 h; mean of three independent experiments in duplicates
Procedure: as §1

[11] = system: Candida glabrata 08A802; assay: microbe, parasite or virus in culture; assay type: cell-based; details: Fungi; two-fold broth microdilution, 37 °C, 18 h; mean of three independent experiments in duplicates
Procedure: as §1

[12] = system: Vibrio cholerae; assay: microbe, parasite or virus in culture; assay type: cell-based; details: Aquatic pathogenic bacteria; two-fold broth microdilution, 37 °C, 18 h; mean of three independent experiments in duplicates
Procedure: as §1

[13] = system: Escherichia coli ATCC25922; assay: microbe, parasite or virus in culture; assay type: cell-based; details: Gram-negative; two-fold broth microdilution, MH broth, 37 °C, 18 h; mean of three independent experiments in duplicates
Procedure: as §1

[14] = system: Aeromonas sobria; assay: microbe, parasite or virus in culture; assay type: cell-based; details: Aquatic pathogenic bacteria; two-fold broth microdilution, 37 °C, 18 h; mean of three independent experiments in duplicates
Procedure: as §1

[15] = system: S. Aureus 08032706; assay: microbe, parasite or virus in culture; assay type: cell-based; details: Gram-positive; two-fold broth microdilution, MH broth, 37 °C, 18 h; mean of three independent experiments in duplicates
Procedure: as §1

[16] = system: S. Aureus 08032810; assay: microbe, parasite or virus in culture; assay type: cell-based; details: Gram-positive; two-fold broth microdilution, MH broth, 37 °C, 18 h; mean of three independent experiments in duplicates
Procedure: as §1

[17] = target: trypsin; assay: Trypsin inhibition assay (NBLAN hydrolysis, Dixon method); assay type: biochemical; details: 50 mM Tris–HCl pH 7.8, trypsin 0.1 mg/mL, 5 min pre-incubation at 37 °C, substrate NBLAN 48, 96, 192 μg/mL, 405 nm
Procedure: The inhibition effect on the hydrolysis of synthetic chromogenic substrate by trypsin was assayed in 50 mM Tris–HCl, pH 7.8 buffer at room temperature. The trypsin of final concentration of 0.1 mg/mL and different amounts of the hybrid peptide (final concentrations ranging from 0 to 0.16 μg/mL) were pre-incubated for 5 min at 37 °C. N-α-Benzoyl-DL-arginine p-nitroanilide hydrochloride (NBLAN) was used as a substrate for trypsin. The reaction was initiated by the addition of NBLAN with a final concentration of 48, 96 and 192 μg/mL, respectively. The formation of yellow product, p-nitroaniline was monitored continuously at 405 nm[61]. The inhibition constant Ki of the hybrid peptides were determined according to the method of Dixon (1953)[62].

[18] = system: E. coli 08040726; assay: MIC, two-fold broth microdilution (second listing of the strain number); assay type: cell-based; details: Gram-negative, MH broth, 37 °C, 18 h, mean of three independent experiments in duplicates
Procedure: as §1

[19] = system: 08030209; assay: microbe, parasite or virus in culture; assay type: cell-based, Arcyria cinerea; details: Fungi; two-fold broth microdilution, 37 °C, 18 h; mean of three independent experiments in duplicates
Procedure: as §1

[20] = system: Vibrio Parahaemolyticus; assay: MIC, two-fold broth microdilution; assay type: cell-based; details: Aquatic pathogenic bacteria; two-fold broth microdilution, 37 °C, 18 h; mean of three independent experiments in duplicates
Procedure: as §1

[21] = system: E. Coli 08032813; assay: MIC, two-fold broth microdilution; assay type: cell-based; details: Gram-negative; two-fold broth microdilution, MH broth, 37 °C, 18 h; mean of three independent experiments in duplicates
Procedure: as §1

[22] = system: Staphylococcus epidermidis; assay: MIC, two-fold broth microdilution; assay type: cell-based; details: Gram-positive; two-fold broth microdilution, MH broth, 37 °C, 18 h; mean of three independent experiments in duplicates
Procedure: as §1

[23] = system: P. mirabilis; assay type: cell-based; details: 18 h
Procedure: as §1

[24] = system: P. aeruginosa; assay type: cell-based; details: 18 h
Procedure: as §1

[25] = system: B. subtilis; assay type: cell-based; details: 18 h
Procedure: as §1

[26] = system: C. albican; assay type: cell-based; details: 18 h
Procedure: as §1

[27] = system: S. dysenteria; assay type: cell-based; details: two-fold broth microdilution, MH broth, 37 °C, 18 h, A595; mean of three independent experiments in duplicate
Procedure: as §1

[28] = system: E. coli; assay type: cell-based; details: 18 h
Procedure: as §1

[29] = system: S. aureus; assay type: cell-based; details: 18 h
Procedure: as §1

CC[C@H](C)[C@@H]1NC(=O)[C@H](CO)NC(=O)[C@H](CCCCN)NC(=O)[C@H]([C@@H](C)O)NC(=O)[C@H](Cc2c[nH]c3ccccc23)NC(=O)[C@@H](N)CSSC[C@@H](C(=O)N[C@@H](CCCCN)C(=O)N[C@@H](Cc2ccccc2)C(=O)N[C@@H](Cc2ccccc2)C(=O)N[C@@H](CCCCN)C(=O)N[C@@H](CCCNC(=N)N)C(=O)N[C@@H](CC(C)C)C(=O)N[C@@H](CC(C)C)C(=O)N[C@@H](CCCCN)C(=O)N[C@@H](CO)C(=O)N[C@H](C(=O)N[C@@H](CCCNC(=N)N)C(=O)N[C@@H](CCCNC(=N)N)C(=O)N[C@@H](C)C(=O)N[C@H](C(=O)N[C@@H](CCCCN)C(=O)N[C@@H](CCCCN)C(=O)N[C@@H](Cc2ccccc2)C(N)=O)C(C)C)C(C)C)NC(=O)[C@@H]2CCCN2C(=O)[C@H](CCCCN)NC(=O)[C@@H]2CCCN2C(=O)[C@@H]2CCCN2C1=O [TIH3] (H-CWTKSIPPKPCKFFKRLLKSVRRAVKKF-NH2; disulfide 1-11)
MIC Aeromonas veronii [1]: — (no detectable activity in MIC assay in dose of 200 µg/mL or in trypsin inhibition assay at concentration of 160 μg/mL)
MIC Candida albicans 08030102 [2]: — (no detectable activity in MIC assay in dose of 200 µg/mL or in trypsin inhibition assay at concentration of 160 μg/mL)
MIC Vibrio brasiiensis [3]: — (no detectable activity in MIC assay in dose of 200 µg/mL or in trypsin inhibition assay at concentration of 160 μg/mL)
MIC Shigella dysenteriae 0804203 [4]: — (no detectable activity in MIC assay in dose of 200 µg/mL or in trypsin inhibition assay at concentration of 160 μg/mL)
MIC K. Pneumoniae 08031012 [5]: — (no detectable activity in MIC assay in dose of 200 µg/mL or in trypsin inhibition assay at concentration of 160 μg/mL)
MIC E. Coli 08032823 [6]: — (no detectable activity in MIC assay in dose of 200 µg/mL or in trypsin inhibition assay at concentration of 160 μg/mL)
MIC P. Aeruginosa 08021015 [7]: — (no detectable activity in MIC assay in dose of 200 µg/mL or in trypsin inhibition assay at concentration of 160 μg/mL)
MIC Enterococcus faecium 08052315 [8]: — (no detectable activity in MIC assay in dose of 200 µg/mL or in trypsin inhibition assay at concentration of 160 μg/mL)
MIC Bacillus subtilis 08042313 [9]: — (no detectable activity in MIC assay in dose of 200 µg/mL or in trypsin inhibition assay at concentration of 160 μg/mL)
MIC K. Pneumoniae 08040202 [10]: — (no detectable activity in MIC assay in dose of 200 µg/mL or in trypsin inhibition assay at concentration of 160 μg/mL)
MIC Candida glabrata 08A802 [11]: — (no detectable activity in MIC assay in dose of 200 µg/mL or in trypsin inhibition assay at concentration of 160 μg/mL)
MIC Vibrio cholerae [12]: — (no detectable activity in MIC assay in dose of 200 µg/mL or in trypsin inhibition assay at concentration of 160 μg/mL)
MIC Escherichia coli ATCC25922 [13]: — (no detectable activity in MIC assay in dose of 200 µg/mL or in trypsin inhibition assay at concentration of 160 μg/mL)
MIC Aeromonas sobria [14]: — (no detectable activity in MIC assay in dose of 200 µg/mL or in trypsin inhibition assay at concentration of 160 μg/mL)
MIC S. Aureus 08032706 [15]: — (no detectable activity in MIC assay in dose of 200 µg/mL or in trypsin inhibition assay at concentration of 160 μg/mL)
MIC S. Aureus 08032810 [16]: — (no detectable activity in MIC assay in dose of 200 µg/mL or in trypsin inhibition assay at concentration of 160 μg/mL)
Ki [17]: 7.5 µM
MIC E. Coli 08040726 (second line with this strain number) [18]: — (no detectable activity in MIC assay in dose of 200 µg/mL or in trypsin inhibition assay at concentration of 160 μg/mL)
MIC Arcyria cinerea 08030209 [19]: — (no detectable activity in MIC assay in dose of 200 µg/mL or in trypsin inhibition assay at concentration of 160 μg/mL)
MIC Vibrio Parahaemolyticus [20]: 37.5 µg/mL (≈ 11.1 µM)
MIC E. Coli 08032813 [21]: — (no detectable activity in MIC assay in dose of 200 µg/mL or in trypsin inhibition assay at concentration of 160 μg/mL)
MIC Staphylococcus epidermidis [22]: — (no detectable activity in MIC assay in dose of 200 µg/mL or in trypsin inhibition assay at concentration of 160 μg/mL)

CC(C)C[C@H](NC(=O)[C@H](CCCNC(=N)N)NC(=O)[C@H](CCCCN)NC(=O)[C@H](Cc1ccccc1)NC(=O)[C@H](Cc1ccccc1)NC(=O)[C@@H](N)CCCCN)C(=O)N[C@@H](CC(C)C)C(=O)N[C@@H](CCCCN)C(=O)N[C@@H](CO)C(=O)N[C@H](C(=O)N[C@@H](CCCNC(=N)N)C(=O)N[C@@H](CCCNC(=N)N)C(=O)N[C@@H](C)C(=O)N[C@H](C(=O)N[C@@H](CCCCN)C(=O)N[C@@H](CCCCN)C(=O)N[C@@H](Cc1ccccc1)C(=O)N[C@@H](CCCNC(=N)N)C(N)=O)C(C)C)C(C)C [Hc2] (H-KFFKRLLKSVRRAVKKFR-NH2)
MIC P. mirabilis [23]: 9.38 µg/mL (≈ 4.07 µM)
MIC P. aeruginosa [24]: 9.38 µg/mL (≈ 4.07 µM)
MIC B. subtilis [25]: 18.75 µg/mL (≈ 8.13 µM)
MIC C. albican [26]: 9.38 µg/mL (≈ 4.07 µM)
MIC S. dysenteria [27]: 2.34 µg/mL (≈ 1.01 µM)
MIC E. coli [28]: 9.38 µg/mL (≈ 4.07 µM)
MIC S. aureus [29]: 9.38 µg/mL (≈ 4.07 µM)
